Consider eleven molecules from patent US10723741B1, “DNA polymerase IIIC inhibitors and use thereof” (Acurx Pharmaceuticals, LLC, priority 2018, dated 2020).

Common to all, as to assay type: cell-based
In assay [1] the test system is Staphylococcus aureus ATCC 29213 (MSSA). In words: Broth microdilution MIC, S. aureus ATCC 29213 (MSSA). As to conditions: broth microdilution, 37° C., 20 hours, read-out: MIC S. aureus ATCC 29213 (MSSA). An excerpt:
(§1) Bacteria tested are Staphylococcus aureus NRS384 (a methicillin-resistant Staphylococcus aureus, MRSA), Staphylococcus aureus ATCC 29213 (a methicillin-sensitive Staphylococcus aureus, MSSA), Streptococcus pneumoniae ATCC 49619, Enterococcus faecalis ATCC 29212, Enterococcus faecium ATCC 700221 (a vancomycin-resistant enterococcus, VRE), Bacillus subtilis ATCC 6633, and Escherichia coli ATCC 25922.
(§2) Staphylococcus aureus NRS384 was obtained from NARSA (Network on Antimicrobial Resistance in Staphylococcus aureus, now the strain collection is in BEI resources). Other bacterial isolates were from ATCC (The American Type Culture Collection). Upon receiving the bacteria samples from aforementioned institutes, the bacteria were cultured according to the manuals provided by the suppliers. The bacteria were stored in 25% glycerol (final concentration) at −80° C.
(§3) On the day of testing, the compounds were dissolved in pure DMSO (Sigma 276855-1L) to […] as stock. In a v-bottom 96-well plate (Axygen-wipp02280), 20 μl DMSO was added into well 2 to well 12 by manual pipetting. Into well 1, 12.8 μL of compound DMSO stock (20 mg/ml) was added and mixed with 27.2 μl DMSO by pipetting. Two fold serial dilutions were performed by transferring and mixing 20 μl of solution from well 1 to well 2, then well 2 to well 3 and so forth until well 11. The well 12 was loaded with 20 μl DMSO without compounds. This was drug ‘mother plate’. From well 1 to well 12, the drug concentrations in the mother plate were […] in DMSO. A multi-pipette was used to perform the serial dilutions. The concentration may be adjusted according to the potency of the compounds. An Echo® Acoustic liquid handling system may be used to replace manual pipetting to make the daughter plates.
(§4) One day prior to the day of MIC testing, bacterial strains were streaked out from −80° C. glycerol stocks onto MHA plates and incubated at 37° C. for 20 hours. Streptococcus pneumoniae was streaked on blood agar and incubated at 37° C. in 5% CO2. The single colonies were picked by using an inoculation loop (Greiner-731175) and suspended into 5 ml sterile saline. The turbidity of the suspension was adjusted to 0.10 (Siemens MicroScan turbidity meter), equal to ˜1.0×10^8 cfu/ml. The bacterial suspension was diluted 200× in corresponding test medium (Table 1). This was used to inoculate daughter plates.
(§5) For preparing u-bottom 96-well ‘daughter plates’ (Costar 3788), an aliquot of 1 μl solution from mother plate was then replicating transferred into the daughter plate using a multi-pipette.
(§6) An aliquot of 99 μl of the bacterial suspension was inoculated into each well of the daughter plates using a multi-pipette. Each well contained ˜5.0×10^5 cfu/ml bacteria, 1% DMSO and serially diluted compounds at 64, 32, 16, 8, 4, 2, 1, 0.5, 0.25, 0.125, 0.0625 and 0 μg/ml from well 1 to well 12 respectively, in 100 μl corresponding test medium.
(§7) The plates were incubated in ambient atmosphere and in a 37° C. incubator for 20 hours.
(§8) Compounds of the present invention were tested for antibacterial activity against a variety of bacterial organism including Bacillus subtilis, Staphylococcus aureus, Enterococcus faecalis, Enterococcus faecium, Streptococcus pneumoniae and Escherichia coli. […] Compounds described in Examples 2, 44, 53, 56, 90, 134, 212, 213, 214, 218, 222, 304, 305, and 307 had MIC of ≤1 μg/ml against S. aureus NRS 384 (MRSA) (μg/ml) and E. faecium ATCC 700221 (VRE) (μg/ml).
In general terms: Dilution methods test growth across graded concentrations, often in twofold steps.

Assay [2] has as its system Enterococcus faecalis ATCC 29212. In words: Broth microdilution MIC, E. faecalis ATCC 29212. As to conditions: ATCC29212, broth microdilution, 37° C., 20 hours, read-out: MIC E. faecalis ATCC 29212.
Excerpt: as §1, §2, §3, §4, §5, §6, §7, §8

Assay [3] deals with Bacillus subtilis ATCC 6633. Put plainly: Broth microdilution MIC, B. subtilis ATCC 6633. As to conditions: ATCC6633, broth microdilution, 37° C., 20 hours, read-out: MIC B. subtilis ATCC 6633.
Excerpt: as §1, §2, §3, §4, §5, §6, §7, §8

Assay [4] concerns Streptococcus pneumoniae ATCC 49619. In words: Broth microdilution MIC, S. pneumoniae ATCC 49619. As to conditions: ATCC49619, broth microdilution, 37° C., 20 hours, read-out: MIC S. pneumoniae ATCC 49619.
Excerpt: as §1, §2, §3, §4, §5, §6, §7, §8

The subject of assay [5] is Staphylococcus aureus NRS384 (MRSA). In words: Broth microdilution MIC, S. aureus NRS384 (MRSA). As to conditions: Staphylococcus aureus; broth microdilution, 37° C., 20 hours; read-out: MIC NRS 384 (MRSA).
Excerpt: as §1, §2, §3, §4, §5, §6, §7, §8

Assay [6] has as its system Enterococcus faecium ATCC 700221 (VRE). Put plainly: Broth microdilution MIC, E. faecium ATCC 700221 (VRE). As to conditions: Enterococcus faecium; broth microdilution, 37° C., 20 hours; read-out: MIC E. faecium ATCC 700221 (VRE).
Excerpt: as §1, §2, §3, §4, §5, §6, §7, §8

In assay [7] the test system is Escherichia coli ATCC 25922. Put plainly: Broth microdilution MIC, E. coli ATCC 25922 (MHIIB w & w/o 4 mM EDTA). As to conditions: broth microdilution, 37° C., 20 hours; for MIC: Escherichia coli, ATCC25922, without EDTA, read-out: MIC E. coli ATCC 25922; for MIC E. coli ATCC 25922 + 4 mM EDTA: with 4 mM EDTA.
Excerpt: as §1, §2, §3, §4, §5, §6, §7, §8

Converted amounts (≈) assume the structure as drawn.

Usually MIC stands for the smallest concentration in the dilution series that meets the test's criterion for growth inhibition. In the case of `Cl.Cl.O=c1[nH]c(NCc2ccc(Cl)c(Cl)c2)nc2cnn(C3CCN(Cc4cccnc4)CC3)c12` [Compound 245, 5-((3,4-Dichlorobenzyl)amino)-1-(1-(pyridin-3-ylmethyl)piperidin-4-yl)-1H-pyrazolo[4,3-d]pyrimidin-7(6H)-one dihydrochloride], the MIC in assay [1] is 2 mg/L; in assay [2] it was 4 mg/L; in assay [3], 1 mg/L; in assay [4], 2 mg/L; in assay [5] it was 2 mg/L; in assay [6] it was 1 mg/L. Also, the MIC in assay [7] is over 64 mg/L. For the same molecule, the “MIC E. coli ATCC 25922 + 4 mM EDTA” value in assay [7] worked out at 32 µg/mL.
As to `Cl.O=c1[nH]c(NCc2ccc(Cl)c(Cl)c2)nc2cnn(CC3(CO)CCNCC3)c12` [Compound 195, 5-((3,4-dichlorobenzyl)amino)-1-((4-(hydroxymethyl)piperidin-4-yl)methyl)-1H-pyrazolo[4,3-d]pyrimidin-7(6H)-one hydrochloride], the MIC in assay [1] is over 64 mg/L; in assay [2], 64 mg/L; in assay [3], 8 mg/L; in assay [4], 16 mg/L; in assay [5], over 64 mg/L; in assay [6] it was 64 mg/L. The MIC in assay [7] is over 64 mg/L. In addition, the “MIC E. coli ATCC 25922 + 4 mM EDTA” value in assay [7] is over 64 µg/mL.
Regarding `O=c1[nH]c(NCc2ccc(Cl)c(Cl)c2)nc2cnn(CCCOC3CC(O)C3)c12` (stereo not shown) [Compound 179, 5-((3,4-dichlorobenzyl)amino)-1-(3-(3-hydroxycyclobutoxy)propyl)-1H-pyrazolo[4,3-d]pyrimidin-7(6H)-one], the MIC in assay [1] came to 8 mg/L (≈ 18.3 µM); in assay [2] it was 4 mg/L (≈ 9.13 µM); in assay [3], 1 mg/L (≈ 2.28 µM); in assay [4] it was 4 mg/L (≈ 9.13 µM); in assay [5] it was 4 mg/L (≈ 9.13 µM); in assay [6] it was 2 mg/L (≈ 4.56 µM). Further, the MIC in assay [7] is over 64 mg/L. The “MIC E. coli ATCC 25922 + 4 mM EDTA” value in assay [7] was over 64 µg/mL.
Turning to `O=c1[nH]c(NCc2ccc(Cl)c(Cl)c2)nc2cnn(C3CCOC3)c12` (stereo not shown) [Compound 119, 5-((3,4-Dichlorobenzyl)amino)-1-(tetrahydrofuran-3-yl)-1H-pyrazolo[4,3-d]pyrimidin-7(6H)-one], the MIC worked out at 2 mg/L (≈ 5.26 µM) in assay [1]; 4 mg/L (≈ 10.5 µM) in assay [2]; 1 mg/L (≈ 2.63 µM) in assay [3]; 4 mg/L (≈ 10.5 µM) in assay [4]; 4 mg/L (≈ 10.5 µM) in assay [5]; 2 mg/L (≈ 5.26 µM) in assay [6]. For the same molecule, the MIC in assay [7] was over 64 mg/L. Further, the “MIC E. coli ATCC 25922 + 4 mM EDTA” value in assay [7] was over 64 µg/mL.
Take `CN1CCC(O)(Cn2ncc3nc(NCc4ccc(Cl)c(Cl)c4)[nH]c(=O)c32)CC1.Cl` [Compound 241, 5-((3,4-dichlorobenzyl)amino)-1-((4-hydroxy-1-methylpiperidin-4-yl)methyl)-1H-pyrazolo[4,3-d]pyrimidin-7(6H)-one hydrochloride]: the MIC in assay [1] came out at 32 mg/L; in assay [2], 32 mg/L; in assay [3] it was 4 mg/L; in assay [4] it was 8 mg/L; in assay [5] it was 64 mg/L; in assay [6] it was 64 mg/L. The MIC in assay [7] was over 64 mg/L. Also, in assay [7], the “MIC E. coli ATCC 25922 + 4 mM EDTA” value was over 64 µg/mL.
`O=C(O)C(CCCn1ncc2nc(NCc3ccc(Cl)c(Cl)c3)[nH]c(=O)c21)c1ccccc1` (stereo not shown) [Compound 201, 5-(5-((3,4-dichlorobenzyl)amino)-7-oxo-6,7-dihydro-1H-pyrazolo[4,3-d]pyrimidin-1-yl)-2-phenylpentanoic acid]: the MIC amounted to 32 mg/L (≈ 65.8 µM) in assay [1]; 32 mg/L (≈ 65.8 µM) in assay [2]; 64 mg/L (≈ 132 µM) in assay [3]; 16 mg/L (≈ 32.9 µM) in assay [4]; 32 mg/L (≈ 65.8 µM) in assay [5]; 16 mg/L (≈ 32.9 µM) in assay [6]. Also, the MIC in assay [7] is over 64 mg/L. In addition, the “MIC E. coli ATCC 25922 + 4 mM EDTA” value in assay [7] was over 64. ug/ml.
`O=C(O)CCCCn1nc(F)c2nc(NCc3ccc(F)c(F)c3)[nH]c(=O)c21` [Compound 210, 5-(5-((3,4-Difluorobenzyl)amino)-3-fluoro-7-oxo-6,7-dihydro-1H-pyrazolo[4,3-d]pyrimidin-1-yl)pentanoic acid]: the MIC in assay [1] stood at 32 mg/L (≈ 80.9 µM); in assay [2], 32 mg/L (≈ 80.9 µM); in assay [3], 64 mg/L (≈ 162 µM); in assay [4] it was 16 mg/L (≈ 40.5 µM); in assay [5], 64 mg/L (≈ 162 µM); in assay [6] it was 16 mg/L (≈ 40.5 µM). In assay [7], the MIC is over 64 mg/L. In addition, the “MIC E. coli ATCC 25922 + 4 mM EDTA” value in assay [7] was over 64 µg/mL.
Consider `Cl.NC(=O)C1CCN(CCn2ncc3nc(NCc4ccc(Cl)c(Cl)c4)[nH]c(=O)c32)CC1` [Compound 66, 1-(2-(5-((3,4-Dichlorobenzyl)amino)-7-oxo-6,7-dihydro-1H-pyrazolo[4,3-d]pyrimidin-1-yl)ethyl)piperidine-4-carboxamide hydrochloride hydrochloride], for which the minimal inhibitory concentration (MIC) came to 64 mg/L in assay [1]; 32 mg/L in assay [2]; 8 mg/L in assay [3]; 8 mg/L in assay [4]; 32 mg/L in assay [5]; 16 mg/L in assay [6]. Besides, in assay [7], the MIC is over 64 mg/L. Besides, in assay [7], the “MIC E. coli ATCC 25922 + 4 mM EDTA” value was determined as 64 µg/mL.
For the molecule `COC/C=C/Cn1ncc2nc(NCc3ccc(Cl)c(Cl)c3)[nH]c(=O)c21` [Compound 192, (E)-5-((3,4-dichlorobenzyl)amino)-1-(4-methoxybut-2-en-1-yl)-1H-pyrazolo[4,3-d]pyrimidin-7(6H)-one], the MIC in assay [1] was 2 mg/L (≈ 5.07 µM); in assay [2], 4 mg/L (≈ 10.1 µM); in assay [3], 1 mg/L (≈ 2.54 µM); in assay [4] it was 4 mg/L (≈ 10.1 µM); in assay [5], 2 mg/L (≈ 5.07 µM); in assay [6], 2 mg/L (≈ 5.07 µM). For the same molecule, the MIC in assay [7] was over 64 mg/L. The “MIC E. coli ATCC 25922 + 4 mM EDTA” value in assay [7] was over 64 µg/mL.
For `Cn1nc(CCO)c2nc(NCc3ccc(Cl)c(Cl)c3)[nH]c(=O)c21` [Compound 48, 5-((3,4-dichlorobenzyl)amino)-3-(2-hydroxyethyl)-1-methyl-1H-pyrazolo[4,3-d]pyrimidin-7(6H)-one], the MIC in assay [1] worked out at 8 mg/L (≈ 21.7 µM); in assay [2], 16 mg/L (≈ 43.5 µM); in assay [3] it was 4 mg/L (≈ 10.9 µM); in assay [4] it was 4 mg/L (≈ 10.9 µM); in assay [5] it was 4 mg/L (≈ 10.9 µM); in assay [6], 8 mg/L (≈ 21.7 µM). Further, the MIC in assay [7] is over 64 mg/L. Also, in assay [7], the “MIC E. coli ATCC 25922 + 4 mM EDTA” value is over 64 µg/mL.
Regarding `Cn1ncc2nc(Nc3ccc(Cl)c(Cl)c3)[nH]c(=O)c21` [Compound 9, 5-((3,4-Dichlorophenyl)amino)-1-methyl-1H-pyrazolo[4,3-d]pyrimidin-7(6H)-one], the MIC in assay [1], in assay [2], in assay [3], in assay [4], in assay [5] and in assay [6] was over 64 mg/L in each case. Also, in assay [7], the MIC was over 64 mg/L. The “MIC E. coli ATCC 25922 + 4 mM EDTA” value in assay [7] is over 64 µg/mL.
